Numbers after ± are expanded uncertainties.
What was measured:
[1] = Liquid; for mass density: 101.33 kPa
[2] = refractive index (Na D-line) (dimensionless); settings: 101.33 kPa, Liquid, Standard Abbe refractometry

| SMILES | mass density ([1]; 298.15 K) [kg/m3] | refractive index ([2]; 298.15 K) | also measured |
| --- | --- | --- | --- |
| N#Cc1cnccn1 [2-cyanopyrazine] | – | – | mass density ([1]; 293.15 K): 1174 ± 1.8 kg/m3; vapor or sublimation pressure ([1]; 476.15 K): 95.1 ± 5 kPa; refractive index ([2]; 293.15 K): 1.534 ± 0.0007 |
| COc1ccccc1 [anisole] | 989.3 ± 1.5 | 1.5142 ± 0.0007 | vapor or sublimation pressure ([1]; 424.45 K): 95.1 ± 5 kPa |
| CCC(C)=O [butanone] | 799.8 ± 1.2 | 1.3769 ± 0.0007 | vapor or sublimation pressure ([1]; 350.95 K): 95.1 ± 5 kPa |
| CCCCCCCCCC [decane] | 726.4 ± 1 | 1.4097 ± 0.0007 | vapor or sublimation pressure ([1]; 444.95 K): 95.1 ± 5 kPa |

Now from value to compound, other results behind:

| mass density ([1]; 298.15 K) [kg/m3] | refractive index ([2]; 298.15 K) | SMILES | also measured |
| --- | --- | --- | --- |
| 718.5 ± 1 | 1.3654 ± 0.0007 | CC(C)OC(C)C [diisopropyl ether] | vapor or sublimation pressure ([1]; 339.65 K): 95.1 ± 5 kPa |
| 943.9 ± 1.4 | 1.4282 ± 0.0007 | CN(C)C=O [dimethylformamide] | vapor or sublimation pressure ([1]; 420.85 K): 95.1 ± 5 kPa; vapor or sublimation pressure ([1]; 420.95 K): 95.1 ± 5 kPa |
| 698.6 ± 1 | – | CCCCCCCC [octane] | vapor or sublimation pressure ([1]; 391.15 K): 95.1 ± 5 kPa |

— the NIST ThermoML archive (doi:10.1016/j.fluid.2007.02.026)
